Earlier results as cited in PMC7207041 (Medicinal chemistry research : an international journal for …, 2020).

Experiments:
Nrf2-regulated proteins = conditions: WT mice; ref Walsh et al. 2014
[1] = tested on: cultured human kidney cells (HEK293); conditions: HEK293, 50 and 100 μM; ref Wen et al. 2015
[2] = tested on: ARE-mediated genes in HepG2 cells; conditions: read-out: EC50, activation of ARE-mediated genes, ref Hu et al. 2013b
[3] = ref Lazzara et al. 2020
[4] = human liver microsomes; ref Lazzara et al. 2020
[5] = human, mouse, and rat; ref Winkel et al. 2015
Keap1 Kelch domain = conditions: read-out: Kd in ITC assay; ref Winkel et al. 2015
GCLC and NQO1 = conditions: mouse, administered together with a cytochrome P450 inhibitor; ref Winkel et al. 2015
Keap1-Nrf2 PPI [6] = conditions: read-out: IC50 in FP assay; ref Jiang et al. 2018
[7] = tested on: LPS-induced cardiomyopathy; conditions: ref Jiang et al. 2018
Keap1-Nrf2 PPI [8] = conditions: same FP assay conditions; ref Tran et al. 2019

COC(=O)[C@]12CCC(C)(C)C[C@H]1[C@H]1C(=O)C=C3[C@@]4(C)C=C(C#N)C(=O)C(C)(C)[C@@H]4CC[C@@]3(C)[C@]1(C)CC2 [CDDO-Me, bardoxolone methyl]
number of proteins changed by treatment (Nrf2-regulated proteins): 43 proteins

O=C(O)[C@H]1CCCC[C@H]1C(=O)N1CCc2ccccc2[C@H]1CN1C(=O)c2ccccc2C1=O [Compound 1]
HO-1 protein expression enhancement [1]: 3.5 fold | TRX1 protein expression enhancement [1]: 2–4 fold | EC50 [2]: 18 µM

COc1ccc(S(=O)(=O)N(CC(F)(F)F)c2cnc(N(CC(=O)O)S(=O)(=O)c3ccc(OC)cc3)c3ccccc23)cc1 [Compound 11]
logD7.4 [3]: 0.5 | cellular levels of Nrf2 and NQO1 expression (Nrf2 target genes; compared with 10, ref Lazzara et al. 2020): remarkable increase | metabolic stability t1/2 [4]: 2.27 h

Cc1cc(C)c(C)c(S(=O)(=O)Nc2ccc(N3CC[C@H](C(=O)O)C3)c3ccccc23)c1C [Compound 12]
metabolic stability in liver microsomes [5]: low metabolic stability | Kd (Keap1 Kelch domain): 6 µM | hepatic mRNA levels of GCLC and NQO1 (GCLC and NQO1): significantly increased

C=CCOC(=O)/N=c1\oc2cc(N(CC)CC)ccc2cc1-c1nc2ccccc2s1 [Compound 25]
IC50 (Keap1-Nrf2 PPI [6]): 5.1 µM | effect in mouse model of LPS-induced cardiomyopathy [7]: cardiac protective effect | mRNA levels of Nrf2 target genes (HO-1 and NQO1) (Nrf2 target genes; H9c2 cardiac cells, ref Jiang et al. 2018): significant increase

O=[N+]([O-])c1ccc(Sc2nnc(COc3ccccc3)n2-c2ccccc2)c2ncccc12 [Compound 30]
Comparative assessment by Bach et. al. FP (Ki μM) (Keap1-Nrf2 PPI [8]): NA (≤77) | expression of Nrf2-responsive proteins NQO1 and GCLM (Nrf2 target genes; ref Kazantsev et al. 2014): induced expression
